# Data taken from US20200270309A1, “MALEIMIDE GROUP-MODIFIED ANGIOGENESIS INHIBITOR HM-1 AND USE THEREOF” (NANJING ANJI BIOLOGICAL TECHNOLOGY CO., LTD, priority 2017, published 2020).
# Marks after values point to notes of the source that are not given here. Peptide text beside a SMILES is read from it. * marks the point of attachment. X60 = O=C1C=CC(=O)N1c1ccccc1CCCCCCCCCC(=O)*; X66 = O=C1C=CC(=O)N1c1cccc(CCCCCCCC(=O)*)c1
# How the values were obtained:
# [1] = test system: human retinal capillary endothelial cells (HRCECs); test: MTT proliferation inhibition on HRCECs; format: cell-based; conditions: 48 h; for A570 nm-A630 nm: mean±SD
# Outline: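 HRCECs seeded at 3.0×10^4 cells/mL, adhered overnight, then exposed to polypeptide for 48 h at 37 °C, 5% CO2. MTT added 4 h, formazan dissolved in DMSO, absorbance 570/630 nm; PIR (%) = 1 − treated/negative control, mean±SD of three independent runs.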
# [2] = test system: xylene-induced ear swelling; test: Xylene-induced mouse ear swelling; format: in vivo; conditions: Kunming mice, injected once a day for 5 days; for Inhibition rate (%): xylene-induced ear swelling
# Outline: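 Kunming mice dosed by injection once daily for 5 days; 1 h after last dose, 0.05 mL xylene applied to right ear, left ear untreated. Mice killed 2 h later; punched ear pieces weighed. Swelling degree = right minus left ear weight; swelling rate = swelling degree/left ear weight ×100%.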
# [3] = test system: choroidal neovascularization; test: Choroidal neovascularization in rats (laser photocoagulation, FFA); format: in vivo; conditions: BN rats
# Outline: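 Male BN rats aged 6-8 weeks were given 8 krypton-laser spots around the optic disc (647.1 nm, 350 mW, 50 μm, 0.05 s). Once the model was confirmed, groups of 5 got daily intravitreal compound at 0.05 μM or saline for 1 week. FFA followed at 3, 7, 14 and 28 days after dosing.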
# [4] = test system: retinal neovascularization (OIR model); test: Retinal vessels in OIR mice; format: in vivo, C57/B16 mice; conditions: for Area of neovascular plexus (mm^2): dose 0.05 μM in the vitreous chamber on day 13, retinal vessels evaluated on day 17; for Inhibition rate (%): dose 0.05 μM in the vitreous chamber on day 13, retinal vessels evaluated on day 17, vs negative control
# Outline: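 C57/B16 pups were held in 75% oxygen from postnatal day 7 to 12, then returned to room air. On day 13 they received intravitreal saline or compound. On day 17 perfused vessels were labelled by Texas red tomato agglutinin injected into the left ventricle (5 min circulation) and retinal vasculature assessed.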
# [5] = test system: carrageenan-induced toe swelling; test: Carrageenan-induced toe swelling in rats; format: in vivo; conditions: SD rats; for Swelling degree 1 h: 1 h after carrageenan; for Swelling degree 3 h: 3 h after carrageenan; for Swelling degree 5 h: 5 h after carrageenan; for Swelling degree 7 h: 7 h after carrageenan
# Outline: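 Rats dosed by injection once daily for 3 d, controls given equal-volume saline. Right hind paw volume measured by water displacement to a marked joint line; swelling degree (mL) is paw volume after carrageenan inflammation minus volume before.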
# [6] = dose 4 mg/kg, right minus left ear piece weight 2 h after xylene
# [7] = dose 8 mg/kg, right minus left ear piece weight 2 h after xylene
# [8] = day 3 after administration, total light spot number was 297, 0.05 μM in the vitreous chamber once a day for 1 week
# [9] = day 7 after administration, total light spot number was 186, 0.05 μM in the vitreous chamber once a day for 1 week
# [10] = day 14 after administration, total light spot number was 137, 0.05 μM in the vitreous chamber once a day for 1 week
# [11] = day 28 after administration, total light spot number was 69, 0.05 μM in the vitreous chamber once a day for 1 week
SMILES,Inhibition rate (%) ([1]; dose 0.05 μM) [%*],A570 nm-A630 nm ([1]; dose 0.05 μM),Inhibition rate (%) ([1]; dose 0.1 μM) [%**],A570 nm-A630 nm ([1]; dose 0.1 μM),Inhibition rate (%) ([1]; dose 0.2 μM) [%*],A570 nm-A630 nm ([1]; dose 0.2 μM),"Swelling degree (mg) [2, 6]",Inhibition rate (%) ([2]; dose 4 mg/kg),"Swelling degree (mg) [2, 7]",Inhibition rate (%) ([2]; dose 8 mg/kg),"CNV Incidence (%) [3, 8] [%]","Leakage Light spot number [3, 8]","CNV Incidence (%) [3, 9] [%]","Leakage Light spot number [3, 9]","CNV Incidence (%) [3, 10] [%]","Leakage Light spot number [3, 10]","CNV Incidence (%) [3, 11] [%]","Leakage Light spot number [3, 11]",Area of neovascular plexus (mm^2) [4] [mm^2],Inhibition rate (%) [4],also measured
C[C@H](NC(=O)CNC(=O)[C@H](CCCNC(=N)N)NC(=O)CCCCCCCc1cccc(N2C(=O)C=CC2=O)c1)C(=O)N[C@@H](CC(=O)O)C(=O)N[C@@H](CCCNC(=N)N)C(=O)N[C@@H](C)C(=O)NCC(=O)NCC(=O)NCC(=O)NCC(=O)N[C@@H](CCCNC(=N)N)C(=O)NCC(=O)N[C@@H](CC(=O)O)C(=O)O [X31] (X66-RGADRAGGGGRGD-OH),41.92,0.7676 ± 0.04187,45.65,0.7183 ± 0.03361,63.50,0.4824 ± 0.04754,4.22 ± 0.51** mg,32.26,5.18 ± 0.71** mg,49.28,53.54,159,46.77,87,41.61,57,44.93,31,0.101 ± 0.013,52.83%**,Swelling degree 1 h ([5]; 2.0 mg/kg once a day for 3 d): 0.23 ± 0.18 mg; Swelling degree 3 h ([5]; 2.0 mg/kg once a day for 3 d): 0.37 ± 0.12 mg; Swelling degree 5 h ([5]; 2.0 mg/kg once a day for 3 d): 0.38 ± 0.16 mg; Swelling degree 7 h ([5]; 2.0 mg/kg once a day for 3 d): 0.33 ± 0.11 mg; Swelling degree 1 h ([5]; 4.0 mg/kg once a day for 3 d): 0.22 ± 0.12 mg; Swelling degree 3 h ([5]; 4.0 mg/kg once a day for 3 d): 0.36 ± 0.16 mg; Swelling degree 5 h ([5]; 4.0 mg/kg once a day for 3 d): 0.38 ± 0.15 mg; Swelling degree 7 h ([5]; 4.0 mg/kg once a day for 3 d): 0.35 ± 0.14 mg
C[C@H](NC(=O)CNC(=O)[C@H](CCCNC(=N)N)NC(=O)CCCCCCCCCc1ccccc1N1C(=O)C=CC1=O)C(=O)N[C@@H](CC(=O)O)C(=O)N[C@@H](CCCNC(=N)N)C(=O)N[C@@H](C)C(=O)NCC(=O)NCC(=O)NCC(=O)NCC(=O)N[C@@H](CCCNC(=N)N)C(=O)NCC(=O)N[C@@H](CC(=O)O)C(=O)O [X21] (X60-RGADRAGGGGRGD-OH),48.85,0.6761 ± 0.01737,67.15,0.4342 ± 0.04189,69.16,0.4076 ± 0.06848,4.97 ± 0.14* mg,20.22,3.15 ± 0.42** mg,49.44,50.84,151,47.85,89,46.72,64,40.58,28,0.118 ± 0.012,44.34%*,"Swelling degree ([2]; dose 2 mg/kg, right minus left ear piece weight 2 h after xylene): 5.39 ± 0.39 mg; Inhibition rate (%) ([2]; dose 2 mg/kg): 13.48%; Swelling degree 1 h ([5]; 2.0 mg/kg once a day for 3 d): 0.23 ± 0.19 mg; Swelling degree 3 h ([5]; 2.0 mg/kg once a day for 3 d): 0.32 ± 0.17 mg; Swelling degree 5 h ([5]; 2.0 mg/kg once a day for 3 d): 0.39 ± 0.16 mg; Swelling degree 7 h ([5]; 2.0 mg/kg once a day for 3 d): 0.33 ± 0.12 mg; Swelling degree 1 h ([5]; 4.0 mg/kg once a day for 3 d): 0.25 ± 0.17 mg; Swelling degree 3 h ([5]; 4.0 mg/kg once a day for 3 d): 0.33 ± 0.13 mg; Swelling degree 5 h ([5]; 4.0 mg/kg once a day for 3 d): 0.39 ± 0.14 mg; Swelling degree 7 h ([5]; 4.0 mg/kg once a day for 3 d): 0.35 ± 0.18 mg"
